Values of other authors in US20090099557A1, “Methods and compositions for optimizing the outcomes of refractive laser surgery of the cornea” (priority 2006, published 2009).

Key:
[1] = system: epithelial cells; conditions: 18% ethanol for 25 seconds; single cell layers of epithelial cells, in vitro
[2] = system: epithelial cells; conditions: ethanol-assisted epithelial separation; Invest Opthalmol Vis Sci 43: 2593-2602 (2002); J Cataract Refract Surg 28: 1841-46 (2002)

SMILES: CCO [ethanol]
- toxic effect of the alcohol on epithelial cells [1]: toxic effect
- toxicity to epithelial cells [2]: toxic to epithelial cells in both a dose- and time-dependent manner
